Reference: patent US20060247251A1, “2-Cyanopyrrolopyrimidines and pharmaceutical uses thereof” (priority 2003, published 2006)

Target: recombinant human cathepsin S (Homo sapiens, UniProt P25774)
Test: in vitro cathepsin S assay
Format: biochemical
Settings: substrate Z-Leu-Leu-4-methylcoumaryl-7-amide, pH 7.0, ambient temperature, read-out: IC50 for the inhibition of human cathepsin S
Experimental: The in vitro assay is carried out in clear, flat-bottomed, 96-well microtiter plates (Greiner GmbH, Germany) at ambient temperature using recombinant human cathepsin S. Inhibition of human cathepsin S is assayed at a constant enzyme and various substrate concentrations (substrate is Z-Leu-Leu-4-methylcoumaryl-7-amide (Bachem (Switzerland)) in 100 parts 0.2M sodium phosphate, pH 7.0, containing 2 mM EDTA, 2 parts 1% Triton X-100, 10 parts 20 mM dithlothreitol (DTT) and 58 parts distilled water. The assay is started by adding the enzyme solution (13 times higher concentration of final concentration of recombinant human Cathepsin S) to the reaction mixture containing various concentrations of the corresponding substrate and the compound. Substrate concentrations between 3.4 and 17 μM are used. The recombinant human Cathepsin S is used at a final concentration of 0.04 nM. Test compounds are used at concentrations between 0.4 and 2 times the determined IC50 of the compound at the enzyme. The relative fluorescence is continuously measured for 30 minutes and the initial velocity is obtained from each progress curve. […]

recombinant human cathepsin S, sequence (P25774 115-331): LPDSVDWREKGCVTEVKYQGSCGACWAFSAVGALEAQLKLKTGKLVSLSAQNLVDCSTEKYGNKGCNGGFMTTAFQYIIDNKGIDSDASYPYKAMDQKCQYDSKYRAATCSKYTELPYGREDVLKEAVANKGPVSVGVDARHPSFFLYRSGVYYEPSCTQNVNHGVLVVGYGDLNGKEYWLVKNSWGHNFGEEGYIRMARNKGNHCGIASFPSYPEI

| SMILES | IC50 |
| --- | --- |
| CCCNC(=O)c1ccc(OCc2cc3cnc(C#N)nc3n2CCC2CCCCC2)c(Cl)c1 [Example 54] | 32 nM |
| N#Cc1ncc2cc(Cc3ccc(F)c(F)c3)n(CCc3ccc(Cl)cc3)c2n1 [Example 169] | 30 nM |
| CC(C)(C)CCn1c(Cc2ccc(CO)cc2)cc2cnc(C#N)nc21 [Example 175] | 5.1 nM |
| N#Cc1ncc2cc(Cc3ccc(N4CCCC4=O)cc3)n(CCC3CCCCC3)c2n1 [Example 179, 7-(2-Cyclohexyl-ethyl)-6-[4-(2-oxo-pyrrolidin-1-yl)-benzyl]-7H-pyrrolo[2,3-d]pyrimidine-2-carbonitrile] | 35 nM |
| CC(C)CCn1c(Cc2cccs2)cc2cnc(C#N)nc21 [Example 193] | 4.1 nM |
| N#Cc1ncc2cc(CN3CCCC3)n(CCC3CCCCC3)c2n1 [Example 278] | 33 nM |
| CC(=O)N1CCC2(CCN(Cc3cc4cnc(C#N)nc4n3CCC3CCCCC3)CC2)C1 [Example 335, 6-(2-Acetyl-2,8-diaza-spiro[4,5]dec-8-ylmethyl)-7-(2-cyclohexyl-ethyl)-7H-pyrrolo[2,3-d]pyrimidine-2-carbonitrile] | 48 nM |
